Measured values taken from patent US8829193B2, “PIM kinase inhibitors and methods of their use” (Novartis AG, priority 2008, dated 2014).
pEC50, pIC50: −log10 of the molar value.

Legend:
Pim1 kinase = Pim1 kinase (Homo sapiens (Human), UniProt P11309); experiment: Pim1 ATP depletion assay; assay type: biochemical; conditions: 20 μM ATP, 40 μM BAD peptide, 2.5 nM PIM1
Experimental: (§1) The activity of PIM1 is measured using a luciferase-luciferin based ATP detection reagent to quantify ATP depletion resulting from kinase-catalyzed phosphoryl transfer to a peptide substrate. Compounds to be tested are dissolved in 100% DMSO and directly distributed into white 384-well plates at 0.5 μl per well. […] After 15 minutes, 10 μl of 40 μM ATP in assay buffer is added. Final assay concentrations are 2.5 nM PIM1, 20 μM ATP, 40 μM BAD peptide and 2.5% DMSO. The reaction is performed until approximately 50% of the ATP is depleted, then stopped with the addition of 20 μl KinaseGlo Plus (Promega Corporation) solution. The stopped reaction is incubated for 10 minutes and the remaining ATP detected via luminescence on the Victor2 (Perkin Elmer).

Pim2 kinase = Pim2 kinase (Homo sapiens (Human), UniProt Q9P1W9); experiment: Pim2 ATP depletion assay; assay type: biochemical; conditions: 4 μM ATP, 10 μM BAD peptide, 5 nM PIM2
Experimental: as §1, with “of PIM2” for “of PIM1”, “0.5 piper” for “0.5 μl per”, “of 8” for “of 40”, “are 5” for “are 2.5”, “nM PIM2, 4” for “nM PIM1, 20”, “ATP, 10” for “ATP, 40”

Pim3 kinase = Pim3 kinase (Homo sapiens (Human), UniProt Q86V86); experiment: Pim3 ATP depletion assay; assay type: biochemical; conditions: 40 μM ATP, 100 μM BAD peptide
Experimental: The activity of PIM3 is measured using a luciferase-luciferin based ATP detection reagent to quantify ATP depletion resulting from kinase-catalyzed phosphoryl transfer to a peptide substrate. Compounds to be tested are dissolved in 100% DMSO and directly distributed into white 384-well plates at 0.5 piper well. […] After 15 minutes, 10 μl of 80 μM ATP in assay buffer is added. Final assay concentrations are 5 nM PIM1, 40 μM ATP, 100 μM BAD peptide and 2.5% DMSO. The reaction is performed until approximately 50% of the ATP is depleted, then stopped by the addition of 20 μl KinaseGlo Plus (Promega Corporation) solution. The stopped reaction is incubated for 10 minutes and the remaining ATP detected via luminescence on the Victor2 (Perkin Elmer).

[1] = system: KMS11 (human myeloma cell line); experiment: Cell Proliferation Assay; assay type: cell-based; conditions: KMS-11, 72 h, KMS11 cells, 3 days, Cell Titer-Glow
Experimental: KMS11 (human myeloma cell line), were cultured in IMDM supplemented with 10% FBS, sodium pyruvate and antibiotics. Cells were plated in the same medium at a density of 2000 cells per well into 96 well tissue culture plates, with outside wells vacant, on the day of assay. MM1.s (human myeloma cell line), were cultured in RPMI1640 supplemented with 10% FBS, sodium pyruvate and antibiotics. Cells were plated in the same medium at a density of 5000 cells per well into 96 well tissue culture plates, with outside wells vacant, on the day of assay.
Test compounds supplied in DMSO were diluted into DMSO at 500 times the desired final concentrations before dilution into culture media to 2 times final concentrations. Equal volumes of 2× compounds were added to the cells in 96 well plates and incubated at 37° C. for 3 days.
After 3 days plates were equilibrated to room temperature and equal volume of Cell Titer-Glow Reagent (Promega) was added to the culture wells. The plates were agitated briefly and luminescent signal was measured with luminometer.
Using the procedures for Cell Proliferation Assay described above, the EC50 concentration of compounds of the previous examples were determined in KMS11 cells as shown in the following table.

Sequence of Pim1 kinase (P11309 whole entry): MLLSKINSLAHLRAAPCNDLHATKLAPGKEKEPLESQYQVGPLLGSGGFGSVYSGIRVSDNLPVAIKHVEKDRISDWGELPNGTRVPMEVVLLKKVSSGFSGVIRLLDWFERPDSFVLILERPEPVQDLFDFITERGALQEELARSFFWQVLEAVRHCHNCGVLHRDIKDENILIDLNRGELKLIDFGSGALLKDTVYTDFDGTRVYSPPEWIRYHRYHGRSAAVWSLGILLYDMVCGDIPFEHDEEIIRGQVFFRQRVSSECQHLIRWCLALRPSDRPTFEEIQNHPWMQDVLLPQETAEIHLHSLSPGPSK
Sequence of Pim2 kinase (Q9P1W9 whole entry): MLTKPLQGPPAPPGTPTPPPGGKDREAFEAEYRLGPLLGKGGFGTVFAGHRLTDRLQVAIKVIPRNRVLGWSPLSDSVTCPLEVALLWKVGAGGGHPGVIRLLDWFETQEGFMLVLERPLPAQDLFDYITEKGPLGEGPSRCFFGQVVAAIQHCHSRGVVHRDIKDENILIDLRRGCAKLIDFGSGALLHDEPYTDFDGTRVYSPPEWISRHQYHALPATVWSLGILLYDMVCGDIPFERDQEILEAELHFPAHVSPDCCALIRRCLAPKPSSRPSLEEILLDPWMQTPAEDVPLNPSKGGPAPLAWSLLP

Row | pIC50 (Pim1 kinase) | pIC50 (Pim2 kinase) | pIC50 (Pim3 kinase) | pEC50 [1] | Compound
1 | 9.00 | 8.40 | 8.52 | 5.72 | Nc1sc(-c2c(F)cccc2F)nc1C(=O)Nc1cnccc1[C@@H]1CC[C@H](O)[C@H](N)C1 (stereo in doubt) [Example 38, 5-amino-N-(4-(3-amino-4-hydroxycyclohexyl)pyridin-3-yl)-2-(2,6-difluorophenyl)thiazole-4-carboxamide]
2 |  |  |  | 5.93 | N[C@H]1CCCN(c2ccncc2NC(=O)c2csc(-c3c(F)cccc3F)n2)C1 [Example 1, (S)-N-(4-(3-aminopiperidin-1-yl)pyridin-3-yl)-2-(2,6-difluorophenyl)thiazole-4-carboxamide]
3 | 8.70 | 7.96 | 8.40 | 5.80 | N[C@@H]1CN(c2ccncc2NC(=O)c2csc(-c3c(F)cccc3F)n2)CC[C@H]1O [Example 2, N-(4-((3R,4R)-3-amino-4-hydroxypiperidin-1-yl)pyridin-3-yl)-2-(2,6-difluorophenyl)thiazole-4-carboxamide]
4 | 9.00 | 8.52 | 9.00 | 6.39 | N[C@@H]1CN(c2ccncc2NC(=O)c2csc(-c3c(F)cccc3F)n2)CC[C@@H]1O [Example 6, N-(4-((3R,4S)-3-amino-4-hydroxypiperidin-1-yl)pyridin-3-yl)-2-(2,6-difluorophenyl)thiazole-4-carboxamide]
5 | 7.68 | 7.34 | 7.46 | 5.33 | CO[C@@H]1C[C@H](N)CN(c2ccncc2NC(=O)c2csc(-c3c(F)cccc3F)n2)C1 [Example 8, N-(4-((3S,5R)-3-amino-5-methoxypiperidin-1-yl)pyridin-3-yl)-2-(2,6-difluorophenyl)thiazole-4-carboxamide]
6 | 8.40 | 7.26 | 8.10 | 5.21 | N[C@H]1C[C@@H](F)CN(c2ccncc2NC(=O)c2csc(-c3c(F)cccc3F)n2)C1 [Example 11, N-(4-((3S,5R)-3-amino-5-fluoropiperidin-1-yl)pyridin-3-yl)-2-(2,6-difluorophenyl)thiazole-4-carboxamide]
7 |  |  |  | 6.08 | CC1CC(N)CN(c2ccncc2NC(=O)c2csc(-c3c(F)cccc3F)n2)C1 (centres unmarked) [Example 14, N-(4-(3-amino-5-methylpiperidin-1-yl)pyridin-3-yl)-2-(2,6-difluorophenyl)thiazole-4-carboxamide]
8 | 9.00 | 8.52 | 8.40 | 6.51 | NC1CC(C(F)(F)F)CN(c2ccncc2NC(=O)c2csc(-c3c(F)cccc3F)n2)C1 (centres unmarked) [Example 15, N-(4-(3-amino-5-(trifluoromethyl)piperidin-1-yl)pyridin-3-yl)-2-(2,6-difluorophenyl)thiazole-4-carboxamide]
9 | 9.00 | 8.52 | 8.40 | 5.62 | NC1CC(CF)CN(c2ccncc2NC(=O)c2csc(-c3c(F)cccc3F)n2)C1 (centres unmarked) [Example 16, N-(4-(3-amino-5-(fluoromethyl)piperidin-1-yl)pyridin-3-yl)-2-(2,6-difluorophenyl)thiazole-4-carboxamide]
10 |  |  |  | 6.40 | C[C@@H]1C[C@H](N)CN(c2ccncc2NC(=O)c2csc(-c3c(F)cccc3F)n2)C1 [Example 28, N-(4-((3S,5R)-3-amino-5-methylpiperidin-1-yl)pyridin-3-yl)-2-(2,6-difluoropheenyl)thiazole-4-carboxamide]
11 |  |  |  | 7.40 | Nc1sc(-c2c(F)cccc2F)nc1C(=O)Nc1cnccc1N1CCC[C@H](N)C1 [Example 29, (S)-5-amino-N-(4-(3-aminopiperidin-1-yl)pyridin-3-yl)-2-(2,6-difluorophenyl)thiazole-4-carboxamide]
12 | 9.00 |  |  | 6.37 | Nc1sc(-c2c(F)cccc2F)nc1C(=O)Nc1cnccc1[C@@H]1CCC[C@H](N)C1 [Example 33, 5-amino-N-(4-((1R,3S)-3-aminocyclohexyl)pyridin-3-yl)-2-(2,6-difluorophenyl)thiazole-4-carboxamide]
13 |  |  |  | 5.30 | N[C@H]1CCC[C@@H](c2ccncc2NC(=O)c2csc(-c3c(F)cccc3F)n2)C1 [Example 34, N-(4-((1R,3S)-3-aminocyclohexyl)pyridin-3-yl)-2-(2,6-difluorophenyl)thiazole-4-carboxamide]
14 | 8.05 | 6.90 | 8.05 |  | C[C@@H]1CN(c2ccncc2NC(=O)c2csc(-c3c(F)cccc3F)n2)C[C@@H](N)[C@H]1O [Example 35, N-(4-((3R,4S,5R)-3-amino-4-hydroxy-5-methylpiperidin-1-yl)pyridin-3-yl)-2-(2,6-difluorophenyl)thiazole-4-carboxamide]
15 | 7.39 | 7.01 | 6.96 |  | C[C@@H]1C[C@H](N)C[C@H](c2ccncc2NC(=O)c2csc(C3CCCCC3)n2)C1 [Example 40, N-(4-((1R,3S,5S)-3-amino-5-methylcyclohexyl)pyridin-3-yl)-2-cyclohexylthiazole-4-carboxamide]
16 | 6.84 | 6.60 | 6.67 |  | C[C@H]1C[C@@H](c2ccncc2NC(=O)c2csc(C3CCCCC3)n2)C[C@@H](N)[C@@H]1O [Example 42, N-(4-((1R,3R,4R,5S)-3-amino-4-hydroxy-5-methylcyclohexyl)pyridin-3-yl)-2-cyclohexylthiazole-4-carboxamide]
17 | 8.30 | 7.34 | 7.82 |  | C[C@H]1C[C@@H](c2ccncc2NC(=O)c2csc(-c3c(F)cccc3F)n2)C[C@@H](N)[C@H]1O [Example 43, N-(4-((1R,3R,4S,5S)-3-amino-4-hydroxy-5-methylcyclohexyl)pyridin-3-yl)-2-(2,6-difluorophenyl)thiazole-4-carboxamide (and enantiomer)]
18 | 9.00 |  | 8.52 | 6.04 | C[C@@H]1C[C@H](N)C[C@H](c2ccncc2NC(=O)c2csc(-c3c(F)cccc3F)n2)C1 [Example 45, N-(4-((1R,3S,5S)-3-amino-5-methylcyclohexyl)pyridin-3-yl)-2-(2,6-difluorophenyl)thhiazole-4-carboxamide]
19 | 9.00 | 7.80 | 8.52 |  | CC1(C)C[C@H](N)C[C@H](c2ccncc2NC(=O)c2csc(-c3c(F)cccc3F)n2)C1 [Example 46, N-(4-((1R,5R)-5-amino-3,3-dimethylcyclohexyl)pyridin-3-yl)-2-(2,6-difluorophenyl)thiazole-4-carboxamide]
20 | 8.70 | 7.75 | 8.64 |  | N[C@H]1CCCN(c2ccncc2NC(=O)c2csc(-c3ccccc3)n2)C1 [Example 48, (S)-N-(4-(3-aminopiperidin-1-yl)pyridin-3-yl)-2-phenylthiazole-4-carboxamide]
21 | 8.72 | 8.00 | 8.38 |  | N[C@H]1CCCN(c2ccncc2NC(=O)c2csc(-c3ccccc3F)n2)C1 [Example 49, (S)-N-(4-(3-aminopiperidin-1-yl)pyridin-3-yl)-2-(2-fluorophenyl)thiazole-4-carboxamide]
22 | 8.49 | 7.08 | 8.08 |  | CC(C)NC(=O)c1ccc(F)c(-c2nc(C(=O)Nc3cnccc3N3CCC[C@H](N)C3)cs2)c1 [Example 50, (S)-N-(4-(3-aminopiperidin-1-yl)pyridin-3-yl)-2-(2-fluoro-5-(isopropylcarbamoyl)phenyl)thiazole-4-carboxamide]
23 | 9.00 | 7.70 | 8.52 |  | CC(C)Oc1ccc(F)c(-c2nc(C(=O)Nc3cnccc3[C@@H]3C[C@H](C)C[C@H](N)C3)cs2)c1F [Example 53]
